Read-outs that look alike come from different tables or passages of the source.
How the values were obtained:
[1] = cited from earlier work
[2] = cited from earlier work; remark: listed apart in the source
[3] = molecular target: WT αHL pore (Staphylococcus aureus, UniProt P09616); type: biochemical, staphylococcal; details: pH 8
[4] = molecular target: αHL (Staphylococcus aureus, UniProt P09616); details: pH 7; cited from earlier work
[5] = test system: cell membrane; details: Xu & McLeod 2001; cited from earlier work

Chain of WT αHL pore (P09616 27-319 limits assumed): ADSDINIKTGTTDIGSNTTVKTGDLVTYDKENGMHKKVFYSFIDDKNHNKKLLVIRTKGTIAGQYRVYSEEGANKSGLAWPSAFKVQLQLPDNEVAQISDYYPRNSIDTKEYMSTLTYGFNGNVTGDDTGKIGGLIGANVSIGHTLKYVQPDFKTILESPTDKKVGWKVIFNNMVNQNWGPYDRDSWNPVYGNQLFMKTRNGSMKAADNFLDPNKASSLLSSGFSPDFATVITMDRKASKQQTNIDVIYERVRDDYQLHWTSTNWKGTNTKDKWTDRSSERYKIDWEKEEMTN
Chain of αHL (P09616 27-319 limits assumed): as above

Molecule: fluo-4
- koff for Ca^2+ dissociation [1]: ~400 s⁻¹

Molecule: CC/C(=C(\c1ccc(O)cc1)c1ccc(OCCN(C)C)cc1)c1ccc(C(C)C)cc1 [Miproxifene, miproxifene]
- water solubility less than miproxifene phosphate ([2]; relative to miproxifene phosphate): 1,000 times

Molecule: OC[C@H]1O[C@@H]2O[C@H]3[C@H](O)[C@@H](O)[C@@H](O[C@H]4[C@H](O)[C@@H](O)[C@@H](O[C@H]5[C@H](O)[C@@H](O)[C@@H](O[C@H]6[C@H](O)[C@@H](O)[C@@H](O[C@H]7[C@H](O)[C@@H](O)[C@@H](O[C@H]8[C@H](O)[C@@H](O)[C@@H](O[C@H]9[C@H](O)[C@@H](O)[C@@H](O[C@H]1[C@H](O)[C@H]2O)O[C@@H]9CO)O[C@@H]8CO)O[C@@H]7CO)O[C@@H]6CO)O[C@@H]5CO)O[C@@H]4CO)O[C@@H]3CO [γCD, γ-cyclodextrin]
- current blockade (blocking) amplitude, mean±s.d. [3]: 63.7±2.0%
- dissociation rate, mean±s.d. [3]: 4.0 ± 0.6 s⁻¹
- blocking amplitude [4]: ~60%
- dissociation rate [4]: 2.0 s⁻¹

Molecule: O=C(O)CN(CCN(CC(=O)O)CC(=O)O)CC(=O)O [EDTA]
- koff for Ca^2+ dissociation ([1]; Naraghi 1997, Johnson et al. 1999): < 1 s⁻¹

Molecule: miproxifene phosphate
- aqueous solubility greater than miproxifene ([2]; relative to miproxifene, Rautio et al. 2008): 1,000 fold

Molecule: COc1cccc2c1C(=O)c1c(O)c3c(c(O)c1C2=O)C[C@@](O)(C(=O)CO)C[C@@H]3O[C@H]1C[C@H](N)[C@H](O)[C@H](C)O1 [doxorubicin]
- permeability to the cell membrane [5]: able to access the cytosol and is

From patent US11998642B2 (priority 2011, dated 2024)
